These results are taken from PubChem BioAssay AID180 (DTP/NCI, 2004).

Structures are written as SMILES. Several values for one entry are separate records, joined by “and”; a condition that tells them apart may be missing. Identical values can stand only once.

The test system of this assay is BDF1 mice, Adenocarcinoma 755 s.c., tumor weight T/C. Put plainly: NCI In Vivo Anticancer Drug Screen. Data for tumor model Adenocarcinoma 755 (subcutaneous) in B6D2F1 (BDF1) mice. The following applies: endpoint: mean tumor weight, higher = larger tumour. A digest of the protocol: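 Values express treated (T) relative to vehicle-dosed control (C) animals, based on survival or tumour size measured after compound treatment of mice bearing a transplanted tumour.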

Where [1] appears, read: dose: 25.0 mg/kg/injection, schedule: Q01DX011 (ip), vehicle: carboxymethylcellulose (CMC).
Where [2] appears, read: dose: 30.0 mg/kg/injection, schedule: Q01DX011 (ip), vehicle: carboxymethylcellulose (CMC).
[3] abbreviates: dose: 60.0 mg/kg/injection, schedule: Q01DX011 (ip), vehicle: carboxymethylcellulose (CMC).
Setting [4] is: dose: 120.0 mg/kg/injection, schedule: Q01DX011 (ip), vehicle: carboxymethylcellulose (CMC).
[5] abbreviates: dose: 240.0 mg/kg/injection, schedule: Q01DX011 (ip), vehicle: carboxymethylcellulose (CMC).
[6] abbreviates: dose: 12.5 mg/kg/injection, schedule: Q01DX011 (ip), vehicle: carboxymethylcellulose (CMC).
The mark [7] stands for this setting: dose: 25.0 mg/kg/injection, schedule: Q01DX011 (ip), vehicle: methylcellulose (MC).
The mark [8] stands for this setting: dose: 75.0 mg/kg/injection, schedule: Q01DX011 (ip), vehicle: methylcellulose (MC).

For `CC12CCC(=O)C=C1CCC1C2C(O)CC2(C)C(O)CCC12` (stereo unspecified), the T/C (commonly the result in the treated group divided by that in the control group, in per cent) is, setting by setting: (dose: 25.0 mg/kg/injection, schedule: Q01DX011 (sc), vehicle: steriod suspending solution) 73 % of control; (dose: 100.0 mg/kg/injection, schedule: Q01DX011 (sc), vehicle: steriod suspending solution) 97 % of control; (dose: 300.0 mg/kg/injection, schedule: Q01DX011 (sc), vehicle: steriod suspending solution) 84 % of control.
Consider `Cc1cccc(N=Nc2c(S(=O)(=O)O)cc3cc(NC(=O)Nc4ccc5c(O)c(N=Nc6ccc7cc(S(=O)(=O)O)ccc7c6)c(S(=O)(=O)O)cc5c4)ccc3c2O)c1`, for which, under “dose: 45.0 mg/kg/injection, schedule: Q01DX011 (ip), vehicle: carboxymethylcellulose (CMC)”, the T/C was 81 % of control.
As for `NS(=O)(=O)c1nc(Cl)c2[nH]cnc2n1`, the T/C was 116 % of control under setting [1]; 73 % of control (dose: 75.0 mg/kg/injection, schedule: Q01DX011 (ip), vehicle: carboxymethylcellulose (CMC)); 69 % of control (dose: 225.0 mg/kg/injection, schedule: Q01DX011 (ip), vehicle: carboxymethylcellulose (CMC)).
As for `CC(=O)OCC1OC(n2cnc3c(=O)[nH]c(N)nc32)CC1OC(C)=O` (stereo unspecified), the T/C runs as follows: under setting [2], 115 % of control; under setting [3], 95 % of control; under setting [4], 94 % of control; under setting [5], 115 % of control.
Take `COC(=O)C1(N)CCCC1`: the T/C reads like this: under setting [6], 63 % of control; under setting [1], 35 % of control; (dose: 50.0 mg/kg/injection, schedule: Q01DX011 (ip), vehicle: carboxymethylcellulose (CMC)) 11 % of control; (dose: 100.0 mg/kg/injection, schedule: Q01DX011 (ip), vehicle: carboxymethylcellulose (CMC)) 5 % of control.
`O=c1[nH]c(Br)nc2nc[nH]c12`: the T/C by setting is: under setting [2], 99 % of control; under setting [3], 98 % of control; under setting [4], 81 % of control; under setting [5], 92 % of control.
Turning to `CCNS(=O)(=O)c1ncnc2nc[nH]c12`, the T/C reads like this: (dose: 6.0 mg/kg/injection, schedule: Q01DX011 (ip), vehicle: other) 94 % of control; (dose: 6.2 mg/kg/injection, schedule: Q01DX011 (ip), vehicle: methylcellulose (MC)) 66 % of control; (dose: 12.0 mg/kg/injection, schedule: Q01DX011 (ip), vehicle: other) 32 % of control; (dose: 12.5 mg/kg/injection, schedule: Q01DX011 (ip), vehicle: methylcellulose (MC)) 36 % of control; under setting [7], 7 % of control and 10 % of control; (dose: 25.0 mg/kg/injection, schedule: Q01DX011 (ip), vehicle: other) 15 % of control. The T/C was 5 % of control (dose: 50.0 mg/kg/injection, schedule: Q01DX011 (ip), vehicle: other); 10 % of control (dose: 100.0 mg/kg/injection, schedule: Q01DX011 (ip), vehicle: other); 5 % of control (dose: 150.0 mg/kg/injection, schedule: Q01DX011 (ip), vehicle: other).
For the compound `C[C@@H]1C[C@H]2[C@@H]3CCC4=CC(=O)C=C[C@]4(C)[C@@]3(F)[C@@H](O)C[C@]2(C)[C@@]1(O)C(=O)CO`, the T/C was 19 % of control and 32 % of control and 39 % of control (dose: 7.0 mg/kg/injection, schedule: Q01DX011 (sc), vehicle: steriod suspending solution); 1 % of control and 25 % of control (dose: 14.0 mg/kg/injection, schedule: Q01DX011 (sc), vehicle: steriod suspending solution); 4 % of control (dose: 21.0 mg/kg/injection, schedule: Q01DX011 (sc), vehicle: steriod suspending solution); 10 % of control (dose: 28.0 mg/kg/injection, schedule: Q01DX011 (sc), vehicle: steriod suspending solution).
With `CC1(c2ccccc2)O[C@@H]2C[C@H]3[C@@H]4CCC5=CC(=O)C=C[C@]5(C)[C@@]4(F)[C@@H](O)C[C@]3(C)[C@]2(C(=O)CO)O1` (stereo partly specified), the T/C by setting is: (dose: 2.75 mg/kg/injection, schedule: Q01DX011 (sc), vehicle: steriod suspending solution) 42 % of control and 45 % of control; (dose: 5.5 mg/kg/injection, schedule: Q01DX011 (sc), vehicle: steriod suspending solution) 14 % of control and 24 % of control; (dose: 11.0 mg/kg/injection, schedule: Q01DX011 (sc), vehicle: steriod suspending solution) 2 % of control and 24 % of control.
With `CSc1ncnc2c1ncn2CCCl`, the T/C is 92 % of control (dose: 1.5 mg/kg/injection, schedule: Q01DX011 (ip), vehicle: carboxymethylcellulose (CMC)); 80 % of control (dose: 3.0 mg/kg/injection, schedule: Q01DX011 (ip), vehicle: carboxymethylcellulose (CMC)); 31 % of control (dose: 6.0 mg/kg/injection, schedule: Q01DX011 (ip), vehicle: carboxymethylcellulose (CMC)); 34 % of control (dose: 6.2 mg/kg/injection, schedule: Q01DX011 (ip), vehicle: carboxymethylcellulose (CMC)); 4 % of control under setting [6].
As to `C[N+](C)(C)c1ncnc2c1ncn2C1CCCO1` (stereo unspecified), the T/C reads like this: (dose: 18.7 mg/kg/injection, schedule: Q01DX011 (ip), vehicle: saline) 100 % of control; (dose: 37.5 mg/kg/injection, schedule: Q01DX011 (ip), vehicle: saline) 5 % of control; (dose: 100.0 mg/kg/injection, schedule: Q01DX011 (ip), vehicle: saline) 2 % of control.
On to `Nc1nc(SCc2ccncc2)c2[nH]cnc2n1`, for which the T/C reads like this: (dose: 1.25 mg/kg/injection, schedule: Q01DX011 (ip), vehicle: methylcellulose (MC)) 71 % of control; (dose: 2.5 mg/kg/injection, schedule: Q01DX011 (ip), vehicle: methylcellulose (MC)) 41 % of control; (dose: 5.0 mg/kg/injection, schedule: Q01DX011 (ip), vehicle: methylcellulose (MC)) 31 % of control; (dose: 10.0 mg/kg/injection, schedule: Q01DX011 (ip), vehicle: methylcellulose (MC)) 9 % of control and 12 % of control; (dose: 20.0 mg/kg/injection, schedule: Q01DX011 (ip), vehicle: methylcellulose (MC)) 3 % of control.
Regarding `CSc1ncnc2c1ncn2C1OC(CO)C(O)C1O` (stereo unspecified), the T/C is, setting by setting: (dose: 1.9 mg/kg/injection, schedule: Q01DX011 (ip), vehicle: saline) 102 % of control and 87 % of control; (dose: 3.0 mg/kg/injection, schedule: Q01DX011 (ip), vehicle: saline) 90 % of control; (dose: 6.0 mg/kg/injection, schedule: Q01DX011 (ip), vehicle: saline) 112 % of control; (dose: 7.5 mg/kg/injection, schedule: Q01DX011 (ip), vehicle: saline) 100 % of control and 120 % of control; (dose: 12.5 mg/kg/injection, schedule: Q01DX011 (ip), vehicle: saline) 93 % of control.
For the compound `COC(=O)C1C(O)CCC2CN3CCc4c([nH]c5ccccc45)C3CC21` (stereo unspecified), the T/C (dose: 150.0 mg/kg/injection, schedule: Q01DX011 (ip), vehicle: carboxymethylcellulose (CMC)) was 75 % of control.
As to `Cc1ccc(/C=N/Nc2nc3c(c(=O)n(C)c(=O)n3C)n2C)cc1`, the T/C under setting [7] was 77 % of control; the T/C under setting [8] was 60 % of control; the T/C (dose: 225.0 mg/kg/injection, schedule: Q01DX011 (ip), vehicle: methylcellulose (MC)) was 39 % of control.
Turning to `OC(CN1CCCCC1)c1ccc(/C=C/c2ccc(Cl)cc2)cc1` (stereo unspecified), the T/C is 40 % of control (dose: 118.0 micrograms/kg/injection, schedule: Q01DX011 (ip), vehicle: methylcellulose (MC)); 55 % of control (dose: 237.0 micrograms/kg/injection, schedule: Q01DX011 (ip), vehicle: methylcellulose (MC)); 49 % of control (dose: 475.0 micrograms/kg/injection, schedule: Q01DX011 (ip), vehicle: methylcellulose (MC)).
As to `CSc1nc(N)nc2c1ncn2Cc1ccccc1`, the T/C reads like this: under setting [8], 74 % of control; (dose: 150.0 mg/kg/injection, schedule: Q01DX011 (ip), vehicle: methylcellulose (MC)) 53 % of control; (dose: 300.0 mg/kg/injection, schedule: Q01DX011 (ip), vehicle: methylcellulose (MC)) 64 % of control.
For `CSc1nc(S(C)(=O)=O)ncc1C`, the T/C (dose: 15.0 mg/kg/injection, schedule: Q01DX011 (ip), vehicle: methylcellulose (MC)) was 86 % of control; the T/C (dose: 31.0 mg/kg/injection, schedule: Q01DX011 (ip), vehicle: methylcellulose (MC)) is 94 % of control; the T/C (dose: 62.0 mg/kg/injection, schedule: Q01DX011 (ip), vehicle: methylcellulose (MC)) was 154 % of control.
